Assay results from patent publication US7064120B2, “Tricyclic pyridyl carboxamides and derivatives thereof tocolytic oxytocin receptor antagonists” (Wyeth, priority 2001, dated 2006).

Molecular target: T1, human vasopressin V1a receptor subtype (Homo sapiens, UniProt P37288)
T1 construct: host or cells: CHO cells, stably transfected (pZeoSV vector for the Thibonnier line)
Assay: Vasopressin binding in CHO cell membranes expressing human vasopressin V1a subtype receptors ([3H]Manning ligand radioligand binding)
Details: 100 nM
Experimental: Vasopressin Binding in Chinese Hamster Ovary Cell Membranes Expressing Human Vasopressin V1a Subtype Receptors
The trypsin is removed by aspiration and the cells dislodged by tapping. Cell Culture medium (e.g. 30 mL for 1:30 split) is immediately added and mixed well to inactivate trypsin. 1 mL of detached cells is added to new culture flasks containing fresh cell culture medium (e.g., into 25 mL per T-150 flask), and mixed gently. The cells are incubated at 37° C. in 5% CO2. The medium is changed at 3 to 4 days interval (or as appropriate). […] All steps are done under sterile conditions.
The cells are washed twice gently with Hank's Balanced Salt solution (e.g,. use 10 mL per T-150 flask). […] The contents are transferred to centrifuge tubes (50 mL) kept in an ice bath. All subsequent steps are done at 4° C. The tubes are centrifuged at 300×g for 15 min (1380 rpm on SORVAL, Model RT6000D, using the rotor for 50 mL tubes). The supernatant is discarded and the cells suspended in homogenizing buffer(10 mM Tris-HCl containing 0.25 M sucrose and 1 mM EDTA, pH 7.4) ensuring that the volume of the buffer is about ten times the volume of the cell pellet. The cells are pooled into a centrifuge tube (50 mL) and homogenized with Polytron at setting 6 for 10 sec. The homogenate is transferred into a Potter-Elvjehm homogenizer and homogenized with 3 strokes. The homogenate is centrifuged at 1500×g for 10 min at 4° C. (3100 rpm using SORVAL, model RT6000D, using the rotor for 50 mL tubes). The pellet is discarded. The supernatant is centrifuged at 100,000×g for 60 min. at 4° C. (Beckman L8-80M ultracentrifuge; spin at 37,500 rpm with rotor type 70 Ti for 50 mL tubes; 38,000 rpm with type 80Ti for 15 mL tubes; or 35,800 rpm with rotor type 45Ti). The supernantant is discarded and the pellet suspended in 3 to 4 mL of Tris buffer (50 mM TRIS-HCl, pH 7.4). The protein content is estimated by the Bradford or Lowry method. The volume of the membrane suspension is adjusted with the membrane buffer (50 mM Tris-HCl containing 0.1% BSA and 0.1 mM PMSF) to give 3.0 mg/mL (or as appropriate) of protein. The membranes are aliquoted and stored at −70° C.
In wells of a 96-well format microtiter plate, is added 90, 110 or 130 μL (to make up a final volume of 200 μL) of assay buffer containing 50 mM of Tris-HCl (pH 7.4), BSA (heat inactivated, protease-free), […], 1 mg % aprotinin, 1 mg % leupeptin, 2 mg % 1,10-phenanthroline, 10 mg % trypsin inhibitor, and 0.1 mM PMSF. The inhibitors are added on the day of the experiment. The components are mixed at room temperature, and then kept in ice bath following adjustment of the pH to 7.4. […] 20 μL of 50% DMSO is added for Manning and other peptide ligands and the assay buffer volume is adjusted accordingly. To each well is added 50 μL of frozen membrane suspension thawed immediately prior to use and diluted in the assay buffer to the required concentration (equivalent to 25 to 50 μg of protein/well as needed). 20 μL of 8 nM [^3H]Manning ligand in the assay buffer, prepared just before use, is added, and incubated at room temperature for 60 min. shaking the plate on a mechanical shaker for the first 15 min. The incubation is stopped by rapid filtration of the plate contents followed by wash with ice-cold buffer (50 mM Tris-HCl, pH 7.4) using a cell harvester (Tomtek and Printed filtermat-B filter paper). The filter paper is thoroughly dried (7–12 min. in a microwave oven) and impregnated with MeltiLex B/H melt-on scintillation wax sheets and the radioactivity counted in a betaplate scintillation counter.
Binding data is either reported as percent inhibition at a certain concentration or if an IC50 was calculated, as a nanomolar concentration.

T1 sequence (P37288 whole entry): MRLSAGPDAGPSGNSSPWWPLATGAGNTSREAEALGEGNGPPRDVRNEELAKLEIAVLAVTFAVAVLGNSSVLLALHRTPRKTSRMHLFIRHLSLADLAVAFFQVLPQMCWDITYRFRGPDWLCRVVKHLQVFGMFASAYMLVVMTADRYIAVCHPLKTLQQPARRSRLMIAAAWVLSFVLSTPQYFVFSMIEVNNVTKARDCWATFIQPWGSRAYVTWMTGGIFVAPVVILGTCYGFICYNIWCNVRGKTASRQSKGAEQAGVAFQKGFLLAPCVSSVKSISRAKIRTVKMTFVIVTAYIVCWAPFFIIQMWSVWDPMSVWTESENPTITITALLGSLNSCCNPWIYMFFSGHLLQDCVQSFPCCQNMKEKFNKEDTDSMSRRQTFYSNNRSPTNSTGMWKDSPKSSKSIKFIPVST

Row | Structure (SMILES) | inhibition at 0.1 µM
1 | Cc1cc(C(=O)N2Cc3ccc(C(=O)N(C)CCc4ccncc4)n3Cc3ccccc32)ccc1-c1ccccc1C(F)(F)F [Example 137, N-Methyl-10-{[2-methyl-2′-trifluoromethyl-[1,1′-biphenyl]-4-yl]carbonyl}-N-[2-(4-pyridinyl)ethyl]-10,11-dihydro-5H-pyrrolo[2,1-c][1,4]benzodiazepine-3-carboxamide] | -1%
2 | COc1ccccc1-c1ccc(C(=O)N2Cc3ccc(C(=O)N4CCN(c5ccncc5)CC4)n3Cc3ccccc32)cc1 [Example 116, {10-[(2′-Methoxy-[1,1′-biphenyl]-4-yl)carbonyl]-10,11-dihydro-5H-pyrrolo[2,1-c][1,4]benzodiazepin-3-yl}[4-(4-pyridinyl)-1-piperazinyl]methanone] | 77%
3 | COc1cccc(-c2ccc(C(=O)N3Cc4ccc(C(=O)N5CCN(c6ccncc6)CC5)n4Cc4ccccc43)cc2OC)c1 [Example 123, {10-[(2,3′-Dimethoxy-[1,1′-biphenyl]-4-yl)carbonyl]-10,11-dihydro-5H-pyrrolo[2,1-c][1,4]benzodiazepin-3-yl}[4-(4-pyridinyl)-1-piperazinyl]methanone] | 71%
4 | Cc1ccccc1-c1ccc(C(=O)N2Cc3ccc(C(=O)NCCc4ccccn4)n3Cc3ccccc32)cc1 [Example 53, 10-[(2′-Methyl-[1,1′-biphenyl]-4-yl)carbonyl]-N-[2-(2-pyridinyl)ethyl]-10,11-dihydro-5H-pyrrolo[2,1-c][1,4]benzodiazepine-3-carboxamide] | 11%
5 | COc1cc(-c2ccccc2C)c(Cl)cc1C(=O)N1Cc2ccc(C(=O)NCc3ccccn3)n2Cc2ccccc21 [Example 29, 10-[(6-Chloro-3-methoxy-2′-methyl-[1,1′-biphenyl]-4-yl)carbonyl]-N-(2-pyridinylmethyl)-10,11-dihydro-5H-pyrrolo[2,1-c][1,4]benzodiazepine-3-carboxamide] | 0%
6 | COc1ccccc1-c1ccc(C(=O)N2Cc3ccc(C(=O)N4CCCCC4c4cccnc4)n3Cc3ccccc32)cc1C (centres unmarked) [Example 138, {10-[(2′-Methoxy-2-methyl-[1,1′-biphenyl]-4-yl)carbonyl]-10,11-dihydro-5H-pyrrolo[2,1-c][1,4]benzodiazepin-3-yl}[2-(3-pyridinyl)-1-piperidinyl]methanone] | 8%
7 | CN(CCc1ccncc1)C(=O)c1ccc2n1Cc1ccccc1N(C(=O)c1ccc(-c3cccc4ccccc34)cc1Cl)C2 [Example 136, 10-[2-Chloro-4-(naphthalen-1-yl)benzoyl]-N-methyl-N-[2-(4-pyridinyl)ethyl]-10,11-dihydro-5H-pyrrolo[2,1-c][1,4]benzodiazepine-3-carboxamide] | 7%
8 | Cc1cc(C(=O)N2Cc3ccc(C(=O)N4CCCCC4c4cccnc4)n3Cc3ccccc32)ccc1-c1ccccc1C(F)(F)F (centres unmarked) [Example 142, (10-{[2-Methyl-2′-trifluoromethyl-[1,1′-biphenyl]-4-yl]carbonyl}-10,11-dihydro-5H-pyrrolo[2,1-c][1,4]benzodiazepin-3-yl)[2-(3-pyridinyl)-1-piperidinyl]methanone] | -5%
9 | COc1cc(C(=O)N2Cc3ccc(C(=O)NCc4ccccn4)n3Cc3ccccc32)ccc1-c1cccc2ccccc12 [Example 31, 10-[3-Methoxy-4-(naphthalen-1-yl)benzoyl]-N-(2-pyridinylmethyl)-10,11-dihydro-5H-pyrrolo[2,1-c][1,4]benzodiazepine-3-carboxamide] | 6%
10 | COc1cccc(-c2ccc(C(=O)N3Cc4ccc(C(=O)N(C)CCc5ccncc5)n4Cc4ccccc43)cc2C)c1 [Example 128, 10-[(3′-Methoxy-2-methyl-[1,1′-biphenyl]-4-yl)carbonyl]-N-methyl-N-[2-(4-pyridinyl)ethyl]-10,11-dihydro-5H-pyrrolo[2,1-c][1,4]benzodiazepine-3-carboxamide] | 31%
11 | COc1cccc(-c2ccc(C(=O)N3Cc4ccc(C(=O)NCCc5ccccn5)n4Cc4ccccc43)cc2OC)c1 [Example 59, 10-[(2,3′-Dimethoxy-[1,1′-biphenyl]-4-yl)carbonyl]-N-[2-(2-pyridinyl)ethyl]-10,11-dihydro-5H-pyrrolo[2,1-c][1,4]benzodiazepine-3-carboxamide] | 12%
12 | COc1ccccc1-c1ccc(C(=O)N2Cc3ccc(C(=O)NCCc4ccccn4)n3Cc3ccccc32)cc1 [Example 52, 10-[(2′-Methoxy-[1,1′-biphenyl]-4-yl)carbonyl]-N-[2-(2-pyridinyl)ethyl]-10,11-dihydro-5H-pyrrolo[2,1-c][1,4]benzodiazepine-3-carboxamide] | 16%
13 | COc1cccc(-c2ccc(C(=O)N3Cc4ccc(C(=O)NCCc5ccccn5)n4Cc4ccccc43)cc2C)c1 [Example 51, 10-[(3′-Methoxy-2-methyl-[1,1′-biphenyl]-4-yl)carbonyl]-N-[2-(2-pyridinyl)ethyl]-10,11-dihydro-5H-pyrrolo[2,1-c][1,4]benzodiazepine-3-carboxamide] | 2%
14 | COc1ccccc1-c1ccc(C(=O)N2Cc3ccc(C(=O)N(C)CCc4ccncc4)n3Cc3ccccc32)cc1 [Example 129, 10-[(2′-Methoxy-[1,1′-biphenyl]-4-yl)carbonyl]-N-methyl-N-[2-(4-pyridinyl)ethyl]-10,11-dihydro-5H-pyrrolo[2,1-c][1,4]benzodiazepine-3-carboxamide] | 54%
15 | COc1cc(C(=O)N2Cc3ccc(C(=O)N(C)CCc4ccccn4)n3Cc3ccccc32)ccc1-n1c(C)ccc1C [Example 144, 10-[4-(2,5-Dimethyl-1H-pyrrol-1-yl)-3-methoxybenzoyl]-N-methyl-N-[2-(pyridin-2-yl)ethyl]-10,11-dihydro-5H-pyrrolo[2,1-c][1,4]benzodiazepine-3-carboxamide] | 11%
16 | COc1cc(C(=O)N2Cc3ccc(C(=O)NCCc4ccccn4)n3Cc3ccccc32)ccc1-c1ccccc1C [Example 54, 10-[(2-Methoxy-2′-methyl-[1,1′-biphenyl]-4-yl)carbonyl]-N-[2-(2-pyridinyl)ethyl]-10,11-dihydro-5H-pyrrolo[2,1-c][1,4]benzodiazepine-3-carboxamide] | 30%
17 | Cc1ccccc1-c1ccc(C(=O)N2Cc3ccc(C(=O)NCc4ccccn4)n3Cc3ccccc32)cc1 [Example 27, 10-[(2′-Methyl-[1,1′-biphenyl]-4-yl)carbonyl]-N-(2-pyridinylmethyl)-10,11-dihydro-5H-pyrrolo[2,1-c][1,4]benzodiazepine-3-carboxamide] | 20%
18 | COc1cc(C(=O)N2Cc3ccc(C(=O)NCc4cccnc4)n3Cc3ccccc32)ccc1-c1ccccc1C [Example 41, 10-[(2-Methoxy-2′-methyl-[1,1′-biphenyl]-4-yl)carbonyl]-N-(3-pyridinylmethyl)-10,11-dihydro-5H-pyrrolo[2,1-c][1,4]benzodiazepine-3-carboxamide] | 20%
19 | COc1ccccc1-c1ccc(C(=O)N2Cc3ccc(C(=O)N(C)CCc4ccncc4)n3Cc3ccccc32)cc1C [Example 126, 10-[(2′-Methoxy-2-methyl-[1,1′-biphenyl]-4-yl)carbonyl]-N-methyl-N-[2-(4-pyridinyl)ethyl]-10,11-dihydro-5H-pyrrolo[2,1-c][1,4]benzodiazepine-3-carboxamide] | 38%
20 | COc1cccc(-c2cc(OC)c(C(=O)N3Cc4ccc(C(=O)N5CCN(c6ccncc6)CC5)n4Cc4ccccc43)cc2Cl)c1 [Example 120, {10-[(6-Chloro-3,3′-dimethoxy-[1,1′-biphenyl]-4-yl)carbonyl]-10,11-dihydro-5H-pyrrolo[2,1-c][1,4]benzodiazepin-3-yl}[4-(4-pyridinyl)-1-piperazinyl]methanone] | 6%
